Patent US11845770B2, “Ascaroside derivatives and methods of use” (California Institute of Technology, priority 2019, dated 2023)
“Also recorded” adds a separate entry of the source.

Assays:
Assay type in all cases: cell-based
[1] = system: THP1 human macrophage cells; assay: Stimulation of THP-1 cells, IL-6 at 6 or 36 hours post stimulation; details: THP1-derived macrophages, IFNγ + LPS, 0.1 to 500 μM, FIG. 9
Method: Human immortalized monocytic THP-1 cells were maintained in phenol red free RPMI 1640 medium containing 10% (v/v) fetal bovine serum (FBS), 2 mM L-glutamine, penicillin (100 units/mL), streptomycin (100 μg/mL), amphotericin B (2.5 μg/mL), and 50 μM beta-mercaptoethanol (BME) at 37° C. with 5% (v/v) CO2. THP-1 cells were seeded in 1 mL of THP-1 medium (cell culture medium containing 10% (v/v) FBS, 2 mM L-glutamine, penicillin (100 units/mL), streptomycin (100 μg/mL), amphotericin B ([…]), and 50 μM BME)/well at a density of 1×10^6 cells/mL in six-well plates. Cells were differentiated by adding 10, 50, or 100 nM phorbol 12-myristate 13-acetate (PMA) to each well before incubating cells for 5.5 h at 37° C. with 5% (v/v) CO2. Without removing the media, different concentrations (either 0, 0.1, 1.0, 10, 100, 200, or 500 μM) of the compound were added to each well. Cells were stimulated, within 30 min by adding 20 ng/mL interferon gamma (IFNγ) and 100 ng/mL lipopolysaccharide (LPS) to each well. Following stimulation, the THP-1 cells were incubated for 6 or 36 hours at 37° C. with 5% (v/v) CO2. Supernatant was collected and stored at −80° C. until use.
IL-6 released from supernatants collected at 6 or 36 hours post stimulation with IFNγ and LPS were measured using the AlphaLISA Human IL-6 detection kit.

[2] = system: BEAS-2B human lung epithelial cells; assay: Stimulation of BEAS-2B human lung epithelial cells, cytokine expression; details: 20 ng/mL IL-1β, 48 h; for percent inhibition relative to Stimulated of Eotaxin expression: FIG. 12, FIG. 13
Method: BEAS-2B cells were maintained in Bronchial Epithelial Cell Growth Basal Medium (BEBM) containing all the recommended supplements for the Bronchial Epithelial Cell Growth Medium (BEGM; Lonza #CC-4175) and allowed to attain approximately 70% confluency with media changed every 2-3 days at 37° C. with 5% (v/v) CO2. Tissue culture flasks/vessels were pre-coated with a mixture of 0.01 mg/mL fibronectin (Sigma), 0.03 mg/ml bovine collagen type I (Sigma) and 0.01 mg/mL bovine serum albumin dissolved in the BEBM. BEAS-2B cells were seeded with 0.5 ml of 1×10^6 cells/mL in BEGM per well on 24-well plates and incubated overnight at 37° C. with 5% (v/v) CO2. The cells are pre-treated with different concentrations of compounds (0, 1.0, 10, 100, 1000 μM) for 1 hour prior to stimulation. To stimulate the cells, 10 ng/mL of Interleukin-1 beta (IL-1β), 10 ng/mL of Lipopolysaccharides (LPS), or 20 ng/mL of IL-1$ is added to the wells without removing the media and incubated for 48 hours at 37° C. with 5% (v/v) CO2. Supernatants were collected and stored at −80° C. until quantitative detection assays are performed. Human Eotaxin, Monocyte Chemoattractant Protein-1 (MCP-1), Interleukin-6 (IL-6), Interleukin-25 (IL-25), Interleukin-33 (IL-33), Thymic stromal lymphopoietin (TSLP), and Granulocyte-Macrophage Colony-Stimulating Factor (GM-CSF) released from supernatants collected post stimulation were measured using Human Magnetic Luminex® Assay Kit. Human CCL5/RANTES was measured using an Enzyme-Linked Immunosorbent Assay (ELISA)-based analysis.

[3] = system: EPC2 human esophageal keratinocytes; assay: Stimulation of EPC2-hTERT human esophageal keratinocytes with Poly(I:C); details: 24 hours; for percent inhibition relative to Stimulated of IL-6 expression: FIG. 19B; for percent inhibition relative to Stimulated of MCP-1 expression: FIG. 19C; for percent inhibition relative to Stimulated of TSLP expression: FIG. 19A
Method: EPC2-hTERT (EPC2) cells were maintained in supplemented keratinocyte serum-free medium (KSFM) with 0.09 mM calcium chloride containing epidermal growth factor (5 ng/mL), bovine pituitary extract ([…]), penicillin (100 units/mL), and streptomycin ([…]) (ThermoFisher #17005042) at 37° C. with 5% (v/v) CO2. EPC2 cells were seeded in 12-well plates at 0.55×10^6 cells per well in supplemented KSFM at 37° C. with 5% (v/v) CO2 and after 6 hours the old media is removed and changed with fresh media. After overnight incubation, the old media is changed to supplemented KSFM containing 1.8 mM calcium chloride and incubated for 72 hours at 37° C. with 5% (v/v) CO2. After the old media is removed and fresh supplemented KSFM containing 1.8 mM calcium chloride is added, the cells are pre-treated with different concentrations of compounds (0, 1, 10, 100, 500, 1000 μM) for 1 hour prior to stimulation. To stimulate the cells, Poly (I:C) (Tocris #4287) is added to the wells at […] concentration without removing the media and incubated for 24 hours at 37° C. with 5% (v/v) CO2. Supernatants are collected in Eppendorf tubes, centrifuged in a microfuge at maximum speed for 10 minutes at 4° C., and the centrifuged supernatants stored at −80° C. until quantitative detection assays are performed. Human Interleukin-6 (IL-6), Monocyte Chemoattractant Protein-1 (MCP-1), and Thymic stromal lymphopoietin (TSLP) released from supernatants collected post stimulation were measured using the AlphaLISA detection kit for human IL-6, MCP-1, and TSLP, respectively.

human naïve T cells = assay: Stimulation of blood derived naïve T cells with Der p1 (house dust mite) antigen; details: at 100 μM; human T cells, Der p1 antigen; FIG. 15
Method: Naïve T cells from peripheral blood samples were collected and processed using MACSxpress® Whole Blood Pan T Cell Isolation Kit (Miltenyi Biotec), according to the manufacturer's protocol. Isolated naïve T cells were cultured in RPMI medium supplemented with 5% Fetal Bovine Serum (FBS) at 37° C. with 5% (v/v) CO2. T cells were seeded in 24 well plates at a density of 0.5×10^6 cells per well. The cells were pre-treated with the compounds (0, 0.1, 1.0, 10, 100 μM) for 1 hour prior to stimulation. Cells were stimulated with […] of Dermatophagoides pteronyssinus (Der p1) antigen. After 48 hours, fresh […] of Der p1 was added and continued incubating for a further 72 hours at 37° C. with 5% (v/v) CO2. Overall T cells were stimulated with […] of Der p1 antigen for 5 days before supernatants were collected and stored at −80° C. until quantitative detection assays are performed.
Human Interleukin-4 (IL-4), Interleukin-5 (IL-5), Interleukin-6 (IL-6), Interleukin-8 (IL-8), Interleukin-13 ([…]), Interleukin-23 (IL-23), and Interferon gamma (IFNγ) released from supernatants collected post stimulation were measured using Human Magnetic Luminex® Assay Kit. Human Transforming Growth Factor beta (TGFβ) was measured using an Enzyme-Linked Immunosorbent Assay (ELISA)-based analysis.

`C[C@H](CCC1CC1C(=O)OC(C)(C)C)O[C@@H]1O[C@@H](C)[C@H](O)C[C@H]1O` (stereo partly drawn) [Compound 2, tert-butyl 2-[(3R)-3-{[(2R,3R,5R,6S)-3,5-dihydroxy-6-methyloxan-2-yl]oxy}butyl]cyclopropane-1-carboxylate] was tested, and the “percent inhibition relative to Control of IL-6 levels secreted” value (“percent inhibition relative to Control” for short) [1] was “inhibited IL-6 expression in statistically significant, dose-dependent manner”, the “percent inhibition relative to Stimulated of Eotaxin expression” value [2] was “statistically significant, complete inhibition” and the “percent inhibition relative to Stimulated of IL-6 expression” value ([3]; increasing concentrations) was “inhibited IL6 expression in statistically significant manner”. For the same compound, the “percent inhibition relative to Stimulated of MCP-1 expression” value ([3]; increasing concentrations) was “inhibited MCP-1 expression in statistically significant manner; also recorded: only showed inhibition at the highest 100 μM concentration” and the “percent inhibition relative to Stimulated of IL-6 expression” value ([3]; at 100 μM) was “robust inhibition”.
In the case of `C[C@H](CC/C=C/C(=O)OCc1ccccc1)O[C@@H]1O[C@@H](C)[C@H](O)C[C@H]1O` [Compound 4, benzyl (2E,6R)-6-{[(2R,3R,5R,6S)-3,5-dihydroxy-6-methyloxan-2-yl]oxy}hept-2-enoate], the “percent inhibition relative to Stimulated of IL-6 expression” value (human naïve T cells) is reported as “statistically significant inhibition”, the “percent inhibition relative to Stimulated of IL-8 expression” value (human naïve T cells) is reported as “statistically significant inhibition” and the “percent inhibition relative to Stimulated of TNFα expression” value (human naïve T cells) is reported as “statistically significant inhibition”. For the same compound, the “percent inhibition relative to Stimulated of TSLP expression” value ([3]; increasing concentrations) was “statistically significant inhibition; also recorded: completely inhibited”, the “percent inhibition relative to Stimulated of IL-6 expression” value ([3]; increasing concentrations) was “inhibited IL-6 expression in statistically significant, dose-dependent manner” and the “percent inhibition relative to Stimulated of MCP-1 expression” value ([3]; increasing concentrations) was “inhibited MCP-1 expression in statistically significant manner; also recorded: only showed inhibition at the highest 100 μM concentration”.
`C[C@H](CC/C=C/C(=O)OCc1cccnc1)O[C@@H]1O[C@@H](C)[C@H](O)C[C@H]1O` [Compound 5, pyridin-3-ylmethyl (2E,6R)-6-{[(2R,3R,5R,6S)-3,5-dihydroxy-6-methyloxan-2-yl]oxy}hept-2-enoate] was tested, and the “percent inhibition relative to Control” value [1] was “inhibited IL-6 expression in statistically significant, dose-dependent manner”.
In the case of `C[C@H](CC/C=C/C(=O)OCc1ccncc1)O[C@@H]1O[C@@H](C)[C@H](O)C[C@H]1O` [Compound 6, pyridin-4-ylmethyl (2E,6R)-6-{[(2R,3R,5R,6S)-3,5-dihydroxy-6-methyloxan-2-yl]oxy}hept-2-enoate], the “percent inhibition relative to Control” value [1] is reported as “inhibited IL-6 expression in statistically significant, dose-dependent manner”, the “percent inhibition relative to Stimulated of IL-33 expression” value ([2]; FIG. 12) is reported as “statistically significant inhibition” and the “percent inhibition relative to Stimulated of TSLP expression” value ([2]; FIG. 12) is reported as “statistically significant inhibition”. The “percent inhibition relative to Stimulated of Eotaxin expression” value [2] was “statistically significant inhibition”, the “percent inhibition relative to Stimulated of IL-25 expression” value ([2]; compound concentration series, FIG. 12) was “robust inhibition of IL-25 expression at 1 mM concentration” and the “percent inhibition relative to Stimulated of IL-25 expression, level at which it topped out” value ([2]; even at 100 μM, FIG. 12) was 60%.
For `CC(C)OC(=O)/C=C/CC[C@@H](C)O[C@@H]1O[C@@H](C)[C@H](O)C[C@H]1O` [Compound 8, isopropyl (R,E)-6-(((2R,3R,5R,6S)-3,5-dihydroxy-6-methyltetrahydro-2H-pyran-2-yl)oxy)hept-2-enoate], the “percent inhibition relative to Control” value [1] was “inhibited IL-6 expression in statistically significant, dose-dependent manner”.
With `C[C@H](CCC(O)CC(=O)OC(C)(C)C)O[C@@H]1O[C@@H](C)[C@H](O)C[C@H]1O` (stereo partly drawn) [Compound 9, tert-butyl (6R)-6-(((2R,3R,5R,6S)-3,5-dihydroxy-6-methyltetrahydro-2H-pyran-2-yl)oxy)-3-hydroxyheptanoate] the “percent inhibition relative to Control” value [1] was “inhibited IL-6 expression in statistically significant, dose-dependent manner”.
In the case of `C[C@@H]1O[C@@H](OCCC/C=C/C(=O)OC(C)(C)C)[C@H](O)C[C@H]1O` [Compound 11, tert-butyl (E)-6-(((2R,3R,5R)-3,5-dihydroxy-6-methyltetrahydro-2H-pyran-2-yl)oxy)hex-2-enoate], the “percent inhibition relative to Control” value [1] is reported as “inhibited IL-6 expression in statistically significant, dose-dependent manner” and the “percent inhibition relative to Stimulated of MCP-1 expression” value ([3]; increasing concentrations) is reported as “inhibited MCP-1 expression in statistically significant, dose-dependent manner”.
`C[C@H](CC/C=C/C(=O)N1CCCC1)O[C@@H]1O[C@@H](C)[C@H](O)C[C@H]1O` [Compound 13, (R,E)-6-(((2R,3R,5R,6S)-3,5-dihydroxy-6-methyltetrahydro-2H-pyran-2-yl)oxy)-1-(pyrrolidin-1-yl)hept-2-en-1-one] was tested, and the “percent inhibition relative to Control” value [1] was “inhibited IL-6 expression in statistically significant, dose-dependent manner”, the “percent inhibition relative to Stimulated of TSLP expression” value ([3]; increasing concentrations) was “inhibited TSLP expression in statistically significant manner; also recorded: robust blocking” and the “percent inhibition relative to Stimulated of MCP-1 expression” value ([3]; increasing concentrations) was “inhibited MCP-1 expression in statistically significant manner”. The “percent inhibition relative to Stimulated of MCP-1 expression” value ([3]; increasing concentrations, listed as compound 13) was “robust blocking of MCP-1 expression starting at 1 mM”.
